Data taken from patent US9453000B2, “Polycyclic compound” (EISAI R&D MANAGEMENT CO., LTD., priority 2007, dated 2016).
pIC50: −log10 of the molar value.

Tested on: Aβ42 production in rat primary neuronal culture
Test: Quantification of Aβ peptide in culture of neurons from rat fetus brain (Aβ ELISA)
Assay type: cell-based
Settings: Primary cortical neuron, 72 h, rat primary cortical neurons (embryonic day 18 Wistar), three days after addition of the compound, Aβx-42 ELISA of medium, read-out: Aβ42 production reducing effect IC50
Procedure: Quantification of Aβ Peptide in Culture of Neurons from Rat Fetus Brain
(1) Rat Primary Neuronal Culture
Primary neuronal cultures were prepared from the cerebral cortex of embryonic day 18 Wistar rats (Charles River Japan, Yokohama, Japan). Specifically, the embryos were aseptically removed from pregnant rats under ether anesthesia. The brain was isolated from the embryo and immersed in an ice-cold L-15 medium (Invitrogen Corp. Cat #11415-064, Carlsbad, Calif., USA, or SIGMA L1518, for example). The cerebral cortex was collected from the isolated brain under a stereoscopic microscope. The cerebral cortex fragments collected were enzymatically treated in an enzyme solution containing 0.25% trypsin (Invitrogen Corp. Cat #15050-065, Carlsbad, Calif., USA) and 0.01% DNase (Sigma D5025, St. Louis, Mo., USA) at 37° C. for 30 minutes to disperse the cells. Here, the enzymatic reaction was stopped by adding inactivated horse serum to the solution. The enzymatically treated solution was centrifuged at 1,500 rpm for five minutes to remove the supernatant. 5 to 10 ml of a medium was added to the resulting cell mass. Neurobasal medium (Invitrogen Corp. Cat #21103-049, Carlsbad, Calif., USA) supplemented with 2% B27 supplement (Invitrogen Corp. Cat #17504-044, Carlsbad, Calif., USA), 25 μM 2-mercaptoethanol (2-ME, WAKO Cat #139-06861, Osaka, Japan), 0.5 mM L-glutamine (Invitrogen Corp. Cat #25030-081, Carlsbad, Calif., USA), and Antibiotics-Antimycotics (Invitrogen Corp. Cat #15240-062, Carlsbad, Calif., USA) was used as the medium (Neurobasal/B27/2-ME). However, the above Neurobasal medium not supplemented with 2-ME (Neurobasal/B27) was used for the assay. The cells were redispersed by mild pipetting of the cell mass to which the medium was added. The cell dispersion was filtered through a 40-μm nylon mesh (Cell Strainer, Cat #35-2340, Becton Dickinson Labware, Franklin Lakes, N.J., USA) to remove the remaining cell mass, and thus a neuronal cell suspension was obtained. The neuronal cell suspension was diluted with the medium and then plated in a volume of 100 μl/well at an initial cell density of 5×10^5 cells/cm^2 in a 96-well polystyrene culture plate pre-coated with poly-L or D-lysine (Falcon Cat #35-3075, Becton Dickinson Labware, Franklin Lakes, N.J., USA coated with poly-L-lysine using the method shown below, or BIOCOAT™ cell environments Poly-D-lysine cell ware 96-well plate, Cat #35-6461, Becton Dickinson Labware, Franklin Lakes, N.J., USA). Poly-L-lysine coating was carried out as follows. 100 μg/ml of a poly-L-lysine (SIGMA P2636, St. Louis, Mo., USA) solution was aseptically prepared with a 0.15 M borate buffer (pH 8.5). 100 μl/well of the solution was added to the 96-well polystyrene culture plate and incubated at room temperature for one or more hours or at 4° C. overnight or longer. The coated 96-well polystyrene culture plate was washed with sterile water four or more times, and then dried or rinsed with, for example, sterile PBS or medium, and used for cell plating. The plated cells were cultured in the culture plate at 37° C. in 5% CO2-95% air for one day. Then, the total amount of the medium was replaced with a fresh Neurobasal™/B27/2-ME medium, and then the cells were cultured for further three days.
The drug was added to the culture plate on Day 4 of culture as follows. The total amount of the medium was removed from the wells, and 180 μl/well of Neurobasal medium not containing 2-ME and containing 2% B-27 (Neurobasal/B27) was added thereto. A solution of the test compound in dimethyl sulfoxide (hereinafter abbreviated as DMSO) was diluted with Neurobasal/B27 at 10-fold of the final concentration. 20 μl/well of the dilution was added to and sufficiently mixed with the medium. The final DMSO concentration was 1% or less. Only DMSO was added to the control group.
The cells were cultured for three days after addition of the compound, and the total amount of the medium was collected. […]

SMILES: COc1cc(/C=C/c2nc3n(n2)CCC3c2ccccc2)ccc1-n1cnc(C)c1 (single isomer, unassigned; (-)) [Example 141, (−)-2-{(E)-2-[3-methoxy-4-(4-methyl-1H-imidazol-1-yl)phenyl]vinyl}-7-phenyl-6,7-dihydro-5H-pyrrolo[1,2-b][1,2,4]triazole]
- pIC50: 7.44

SMILES: Cc1cn(-c2ccc(/C=C/c3nc4n(n3)CCC[C@@H]4c3ccccc3C(F)(F)F)nc2OCC(F)F)cn1 (single isomer, unassigned) [Example 354, (−)-2-{(E)-2-[5-(4-methyl-1H-imidazol-1-yl)-6-(2,2-difluoroethoxy)pyridin-2-yl]vinyl}-8-(2-trifluoromethylphenyl)-5,6,7,8-tetrahydro-[1,2,4]triazolo[1,5-a]pyridine]
- pIC50: 7.43

SMILES: COc1nc(/C=C/c2nc3n(n2)CCCC3c2c(F)cccc2C(F)(F)F)ccc1-n1cnc(C)c1 (single isomer, unassigned) [Example 331, (−)-8-(6-fluoro-2-trifluoromethylphenyl)-2-{(E)-2-[6-methoxy-5-(4-methyl-1H-imidazol-1-yl)pyridin-2-yl]vinyl}-5,6,7,8-tetrahydro-[1,2,4]triazolo[1,5-a]pyridine]
- pIC50: 7.66

SMILES: COc1nc(/C=C/c2nc3n(n2)CC[C@H]3c2ccc(F)c(F)c2)ccc1-n1cnc(C)c1 [Example 380, (S)-7-(3,4-difluorophenyl)-2-{(E)-2-[6-methoxy-5-(4-methyl-1H-imidazol-1-yl)pyridin-2-yl]vinyl}-6,7-dihydro-5H-pyrrolo[1,2-b][1,2,4]triazole]
- pIC50: 7.54

SMILES: COc1cc(/C=C(\F)c2nc3n(n2)CCCC3(O)c2cc(F)c(F)c(F)c2)ccc1-n1cnc(C)c1 (single isomer, unassigned; (-)) [Example 94, (−)-2-{(Z)-1-fluoro-2-[3-methoxy-4-(4-methyl-1H-imidazol-1-yl)phenyl]vinyl}-8-(3,4,5-trifluorophenyl)-5,6,7,8-tetrahydro[1,2,4]triazolo[1,5-a]pyridin-8-ol]
- pIC50: 7.28

SMILES: CCCCC(O)c1ccc(C2CCCn3nc(/C=C/c4ccc(-n5cnc(C)c5)c(OC)c4)nc32)cc1 (stereo not drawn) [Example 19, 1-{4-{2-{(E)-2-[3-methoxy-4-(4-methyl-1H-imidazol-1-yl)phenyl]vinyl}-5,6,7,8-tetrahydro[1,2,4]triazolo[1,5-a]pyridin-8-yl}phenyl}pentan-1-ol]
- pIC50: 7.37

SMILES: COc1cc(/C=C/c2nc3n(n2)CCC[C@]3(O)c2ccccc2F)ccc1-n1cnc(C)c1 (single isomer, unassigned) [Example 59, (−)-8-(2-fluorophenyl)-2-{(E)-2-[3-methoxy-4-(4-methyl-1H-imidazol-1-yl)phenyl]vinyl}-5,6,7,8-tetrahydro-[1,2,4]triazolo[1,5-a]pyridin-8-ol]
- pIC50: 7.35

SMILES: COc1cc(/C=C/c2nc3n(n2)CCCC3c2ccccc2C(F)(F)F)ccc1-n1cnc(C)c1 (single isomer, unassigned) [Example 311, (−)-2-{(E)-2-[3-methoxy-4-(4-methyl-1H-imidazol-1-yl)phenyl]vinyl}-8-(2-trifluoromethylphenyl)-5,6,7,8-tetrahydro-[1,2,4]triazolo[1,5-a]pyridine]
- pIC50: 7.96

SMILES: COc1nc(/C=C/c2nc3n(n2)CCCC3c2cc(F)c(F)c(F)c2)ccc1-n1cnc(C)c1 (single isomer, unassigned) [Example 169, (−)-2-{(E)-2-[6-methoxy-5-(4-methyl-1H-imidazol-1-yl)pyridin-2-yl]vinyl}-8-(3,4,5-trifluorophenyl)-5,6,7,8-tetrahydro-[1,2,4]triazolo[1,5-a]pyridine]
- pIC50: 7.66

SMILES: COc1nc(/C=C/c2nc3n(n2)CCC[C@@H]3c2cccc(C(F)(F)F)c2)ccc1-n1cnc(C)c1 (single isomer, unassigned) [Example 321, (−)-2-{(E)-2-[6-methoxy-5-(4-methyl-1H-imidazol-1-yl)pyridin-2-yl]vinyl}-8-(3-trifluoromethylphenyl)-5,6,7,8-tetrahydro[1,2,4]triazolo[1,5-a]pyridine]
- pIC50: 7.64

SMILES: COc1nc(/C=C/c2nc3n(n2)CCC[C@H]3c2ccc(F)c(F)c2)ccc1-n1cnc(C)c1 (single isomer, unassigned) [Example 171, (−)-8-(3,4-difluorophenyl)-2-{(E)-2-[6-methoxy-5-(4-methyl-1H-imidazol-1-yl)pyridin-2-yl]vinyl}-5,6,7,8-tetrahydro-[1,2,4]triazolo[1,5-a]pyridine]
- pIC50: 7.77

SMILES: COc1nc(/C=C/c2nc3n(n2)CC[C@H]3c2ccccc2C(F)(F)F)ccc1-n1cnc(C)c1 [Example 390, (S)-2-{(E)-2-[6-methoxy-5-(4-methyl-1H-imidazol-1-yl)pyridin-2-yl]vinyl}-7-(2-trifluoromethylphenyl)-6,7-dihydro-5H-pyrrolo[1,2-b][1,2,4]triazole]
- pIC50: 7.59
